Experimental data published in ChEMBL document CHEMBL1201862, “PubChem BioAssay data set” (2004).
Activity calls are given as the source filed them.

Legend:
fMet-Leu-Phe receptor = target: T1, fMet-Leu-Phe receptor (Homo sapiens, UniProt P21462); assay: formyl peptide receptor binders – dose response (AID 519); type: functional
T1 sequence (P21462 whole entry): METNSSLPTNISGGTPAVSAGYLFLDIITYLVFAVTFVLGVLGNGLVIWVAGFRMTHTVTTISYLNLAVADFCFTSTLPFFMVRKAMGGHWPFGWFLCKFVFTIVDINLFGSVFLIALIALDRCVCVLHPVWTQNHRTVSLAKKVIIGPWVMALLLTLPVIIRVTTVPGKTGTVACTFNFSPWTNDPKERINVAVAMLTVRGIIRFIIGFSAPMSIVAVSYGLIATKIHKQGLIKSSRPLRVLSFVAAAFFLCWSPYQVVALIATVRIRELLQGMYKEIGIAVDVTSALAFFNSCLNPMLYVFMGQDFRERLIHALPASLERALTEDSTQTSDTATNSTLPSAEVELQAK

[1] = target: T2, DNA repair protein RAD52 homolog (Homo sapiens, UniProt P43351); type: functional, biochemical
T2 sequence (P43351 whole entry): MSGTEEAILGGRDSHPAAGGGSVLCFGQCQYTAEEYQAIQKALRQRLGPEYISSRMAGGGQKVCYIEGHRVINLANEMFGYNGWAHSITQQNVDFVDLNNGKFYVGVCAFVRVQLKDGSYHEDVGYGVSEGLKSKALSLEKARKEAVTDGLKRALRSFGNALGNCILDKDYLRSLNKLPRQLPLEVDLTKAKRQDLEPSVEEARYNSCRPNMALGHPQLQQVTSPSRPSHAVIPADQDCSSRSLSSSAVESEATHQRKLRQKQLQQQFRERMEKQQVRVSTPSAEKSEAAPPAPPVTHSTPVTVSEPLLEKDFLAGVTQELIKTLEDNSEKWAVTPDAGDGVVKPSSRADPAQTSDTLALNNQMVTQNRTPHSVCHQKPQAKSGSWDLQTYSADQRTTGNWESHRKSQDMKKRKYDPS

[2] = target: T3, Endoribonuclease toxin MazF (Escherichia coli K-12, UniProt P0AE70); assay: substrate-only fluorescence increase artefacts – biochemical, single-stranded RNase substrate, counter-screen for MazEF activator project, dose response (AID 588502); type: functional
T3 sequence (P0AE70 whole entry): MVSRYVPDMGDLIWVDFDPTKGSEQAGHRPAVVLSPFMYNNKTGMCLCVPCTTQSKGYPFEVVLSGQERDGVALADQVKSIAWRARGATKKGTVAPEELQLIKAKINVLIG

[3] = target: T3, Endoribonuclease toxin MazF; assay: activation of MazEF endoribonuclease cleavage – biochemical, fluorescence, single-stranded RNA substrate, uHTS hits, dose response (AID 588481); type: functional
[4] = target: T4, Zinc finger protein mex-5 (Caenorhabditis elegans, UniProt Q9XUB2); assay: potency of MEX-5 RNA-binding blockers – biochemical, C. elegans, fluorescence polarization, dose response (AID 1960)
T4 sequence (Q9XUB2 whole entry): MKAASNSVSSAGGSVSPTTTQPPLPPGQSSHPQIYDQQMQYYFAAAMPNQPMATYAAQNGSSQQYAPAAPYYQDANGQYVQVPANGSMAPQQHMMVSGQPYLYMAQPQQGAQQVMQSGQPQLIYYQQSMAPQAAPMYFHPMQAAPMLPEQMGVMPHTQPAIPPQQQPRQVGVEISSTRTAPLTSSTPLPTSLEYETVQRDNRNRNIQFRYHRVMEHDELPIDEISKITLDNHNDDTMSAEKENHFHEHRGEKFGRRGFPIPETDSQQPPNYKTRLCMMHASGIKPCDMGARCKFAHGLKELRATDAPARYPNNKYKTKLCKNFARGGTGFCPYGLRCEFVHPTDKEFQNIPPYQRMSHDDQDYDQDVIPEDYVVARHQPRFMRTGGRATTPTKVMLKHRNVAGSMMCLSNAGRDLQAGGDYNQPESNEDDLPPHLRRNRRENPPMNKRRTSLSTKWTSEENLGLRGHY

[5] = target: T5, Corticotropin-releasing factor receptor 2/Corticotropin-releasing factor-binding protein (Homo sapiens, UniProt P24387+Q13324); assay: activators of CRF receptor 2 with binding protein – uHTS hits, confirmation (AID 602473); type: functional; settings: read-out: EC50_Mean
T5 sequence (Q13324 whole entry): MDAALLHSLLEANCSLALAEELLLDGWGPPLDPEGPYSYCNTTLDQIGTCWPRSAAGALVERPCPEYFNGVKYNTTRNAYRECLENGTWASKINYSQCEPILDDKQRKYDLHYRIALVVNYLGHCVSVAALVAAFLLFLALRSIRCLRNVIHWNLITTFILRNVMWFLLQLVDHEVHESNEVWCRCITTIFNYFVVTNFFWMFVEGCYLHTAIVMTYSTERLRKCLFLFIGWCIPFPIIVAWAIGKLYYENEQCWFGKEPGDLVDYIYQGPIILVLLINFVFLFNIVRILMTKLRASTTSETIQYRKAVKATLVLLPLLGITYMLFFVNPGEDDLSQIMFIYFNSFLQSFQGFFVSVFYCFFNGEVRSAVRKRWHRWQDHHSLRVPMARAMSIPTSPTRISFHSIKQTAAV
T5 sequence (P24387 whole entry): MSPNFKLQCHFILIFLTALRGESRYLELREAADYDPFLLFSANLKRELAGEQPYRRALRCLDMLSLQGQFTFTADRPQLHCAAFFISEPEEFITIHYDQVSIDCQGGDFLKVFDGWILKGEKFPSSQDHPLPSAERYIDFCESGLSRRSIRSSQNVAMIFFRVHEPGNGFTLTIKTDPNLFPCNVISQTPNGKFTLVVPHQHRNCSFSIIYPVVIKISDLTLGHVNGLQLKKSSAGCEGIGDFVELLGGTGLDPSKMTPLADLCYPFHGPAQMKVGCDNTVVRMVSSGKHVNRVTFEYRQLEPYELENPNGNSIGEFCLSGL

[6] = target: T6, RNA-binding protein pos-1 (Caenorhabditis elegans, UniProt G5EF15); assay: disruptors of C. elegans POS-1 RNA interaction – biochemical, fluorescence polarization, dose response (AID 1964);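 further: purified POS-1 fused to maltose binding protein made in E. coli; potency of compounds blocking POS-1 binding to fluorescent RNA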
T6 sequence (G5EF15 whole entry): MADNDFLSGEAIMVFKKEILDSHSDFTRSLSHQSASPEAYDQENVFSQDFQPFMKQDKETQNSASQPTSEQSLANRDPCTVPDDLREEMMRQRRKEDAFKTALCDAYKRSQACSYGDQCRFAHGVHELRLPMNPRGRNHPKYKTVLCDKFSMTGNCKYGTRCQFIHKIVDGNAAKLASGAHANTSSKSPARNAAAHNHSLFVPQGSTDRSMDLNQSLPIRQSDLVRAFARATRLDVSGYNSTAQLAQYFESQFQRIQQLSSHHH

[7] = target: Induced myeloid leukemia cell differentiation protein Mcl-1 (Homo sapiens, UniProt Q07820); type: functional
Sequence of Induced myeloid leukemia cell differentiation protein Mcl-1 (Q07820 whole entry): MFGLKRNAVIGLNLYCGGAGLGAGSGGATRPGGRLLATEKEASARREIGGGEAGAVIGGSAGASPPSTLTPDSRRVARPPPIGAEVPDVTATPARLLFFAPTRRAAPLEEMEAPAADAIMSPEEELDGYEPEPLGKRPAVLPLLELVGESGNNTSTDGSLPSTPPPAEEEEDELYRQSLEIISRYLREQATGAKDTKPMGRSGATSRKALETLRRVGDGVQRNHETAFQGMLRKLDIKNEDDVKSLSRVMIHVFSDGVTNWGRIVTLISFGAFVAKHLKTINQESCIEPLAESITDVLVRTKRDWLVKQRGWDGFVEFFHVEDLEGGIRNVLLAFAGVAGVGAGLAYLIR

[8] = target: T7, Histone-lysine N-methyltransferase NSD2 (Homo sapiens, UniProt O96028); type: biochemical
T7 sequence (O96028 whole entry): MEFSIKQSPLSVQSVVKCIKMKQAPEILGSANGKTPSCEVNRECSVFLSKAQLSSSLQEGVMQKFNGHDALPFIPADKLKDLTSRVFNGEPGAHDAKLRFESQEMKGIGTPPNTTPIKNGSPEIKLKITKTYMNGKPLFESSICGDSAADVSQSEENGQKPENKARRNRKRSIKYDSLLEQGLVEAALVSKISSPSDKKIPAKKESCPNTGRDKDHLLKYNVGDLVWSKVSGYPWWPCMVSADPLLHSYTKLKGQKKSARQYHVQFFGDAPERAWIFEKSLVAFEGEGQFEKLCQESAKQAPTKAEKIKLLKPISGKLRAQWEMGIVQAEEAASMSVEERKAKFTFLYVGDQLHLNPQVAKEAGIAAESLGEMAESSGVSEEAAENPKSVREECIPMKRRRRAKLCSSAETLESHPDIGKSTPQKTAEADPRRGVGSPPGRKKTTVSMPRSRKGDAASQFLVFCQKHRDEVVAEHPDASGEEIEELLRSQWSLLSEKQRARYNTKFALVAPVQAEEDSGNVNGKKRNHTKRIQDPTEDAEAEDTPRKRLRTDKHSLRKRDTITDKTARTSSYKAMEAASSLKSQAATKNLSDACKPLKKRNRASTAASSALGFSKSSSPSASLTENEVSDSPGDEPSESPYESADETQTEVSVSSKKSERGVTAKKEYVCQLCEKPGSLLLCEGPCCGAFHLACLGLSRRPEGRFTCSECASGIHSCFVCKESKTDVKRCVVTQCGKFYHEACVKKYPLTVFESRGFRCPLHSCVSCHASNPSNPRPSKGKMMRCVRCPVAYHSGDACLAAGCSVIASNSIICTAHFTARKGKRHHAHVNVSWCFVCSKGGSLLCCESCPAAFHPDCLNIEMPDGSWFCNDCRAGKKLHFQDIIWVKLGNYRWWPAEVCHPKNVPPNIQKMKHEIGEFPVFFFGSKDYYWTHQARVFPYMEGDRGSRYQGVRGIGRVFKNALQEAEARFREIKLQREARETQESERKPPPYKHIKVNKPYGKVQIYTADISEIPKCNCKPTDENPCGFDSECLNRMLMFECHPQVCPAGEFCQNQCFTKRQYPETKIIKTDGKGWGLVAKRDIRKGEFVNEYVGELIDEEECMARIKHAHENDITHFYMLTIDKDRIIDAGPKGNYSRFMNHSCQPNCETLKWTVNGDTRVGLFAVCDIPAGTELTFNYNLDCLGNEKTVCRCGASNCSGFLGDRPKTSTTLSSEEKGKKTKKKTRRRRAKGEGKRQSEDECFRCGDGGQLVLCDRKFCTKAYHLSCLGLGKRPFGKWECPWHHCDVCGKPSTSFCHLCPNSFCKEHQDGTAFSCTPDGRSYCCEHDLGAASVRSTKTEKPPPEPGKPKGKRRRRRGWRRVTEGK

Paired box protein Pax-8 = Paired box protein Pax-8 (Homo sapiens, UniProt Q06710); assay: PAX8 transcriptional activity inhibition in RMG-I – RMG-I cells, luciferase, cherry-pick, dose response (AID 687027); type: functional, cell-based;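 further: luciferase reporter driven by Pax8 target thyroperoxidase promoter measured by SteadyGlo luminescence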
Sequence of Paired box protein Pax-8 (Q06710 whole entry): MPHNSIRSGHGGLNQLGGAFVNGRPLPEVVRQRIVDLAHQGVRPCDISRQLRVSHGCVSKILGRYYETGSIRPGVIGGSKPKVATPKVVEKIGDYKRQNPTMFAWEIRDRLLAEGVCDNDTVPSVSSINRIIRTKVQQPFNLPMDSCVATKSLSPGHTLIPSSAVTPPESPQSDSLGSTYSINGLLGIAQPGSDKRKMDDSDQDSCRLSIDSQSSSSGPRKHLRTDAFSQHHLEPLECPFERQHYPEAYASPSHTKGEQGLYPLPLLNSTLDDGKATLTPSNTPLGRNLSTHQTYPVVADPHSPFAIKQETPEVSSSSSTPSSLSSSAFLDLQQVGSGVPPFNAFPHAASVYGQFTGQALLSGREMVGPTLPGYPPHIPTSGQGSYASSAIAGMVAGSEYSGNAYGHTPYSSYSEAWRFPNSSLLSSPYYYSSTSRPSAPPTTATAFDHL

[9] = system: Streptococcus sp. 'group A'; assay: Streptococcus pyogenes SK(-)GAS viability under kanamycin – luminescence, BacTiterGlo, confirmation, counter-screen for streptokinase expression inhibitor project, dose response (AID 1900); type: functional, organism-based
Streptococcus = assay: GAS UMAA2166 growth inhibition – luminescence, BacTiterGlo, counter-screen for streptokinase expression inhibitor project, dose response (AID 1915); type: functional, organism-based;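 further: potency for reduction of bacterial viability or growth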
Streptokinase A = target: T8, Streptokinase A (Streptococcus pyogenes serotype M1, UniProt P10520); assay: viability-normalized secreted streptokinase activity reduction – plasminogen activation absorbance, OD405, dose response (AID 1914); type: functional, Streptococcus pyogenes M1 GAS;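 further: secreted streptokinase activity via plasminogen activation per viability signal from cell pellet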
T8 sequence (P10520 whole entry): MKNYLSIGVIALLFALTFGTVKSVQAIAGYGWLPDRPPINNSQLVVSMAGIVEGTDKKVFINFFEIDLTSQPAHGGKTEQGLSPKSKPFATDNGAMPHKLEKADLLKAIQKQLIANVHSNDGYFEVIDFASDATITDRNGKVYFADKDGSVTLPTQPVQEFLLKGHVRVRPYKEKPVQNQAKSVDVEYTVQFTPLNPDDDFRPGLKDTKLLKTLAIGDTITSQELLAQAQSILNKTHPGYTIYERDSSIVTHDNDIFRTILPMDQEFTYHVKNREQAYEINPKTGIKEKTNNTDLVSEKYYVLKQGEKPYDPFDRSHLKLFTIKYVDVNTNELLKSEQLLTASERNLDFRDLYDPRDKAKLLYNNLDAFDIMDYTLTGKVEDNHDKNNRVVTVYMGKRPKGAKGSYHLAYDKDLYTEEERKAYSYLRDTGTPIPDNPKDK

H9c2 = assay: cells; type: functional, cell-based; settings: Rattus norvegicus, H9c2, Myocardium;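 further: confirmatory concentration-response retest of ultra-high-throughput screening hits for modulation of myocardial damage; cell death induced by hydrogen peroxide oxidative stress; compound pretreatment for 60 min then peroxide exposure for 2 h; potency is for protecting the cells against peroxide damage rather than for killing them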
[10] = Luminescence Cell-Based Dose Retest to Confirm Inhibitors of Cancer Stem Cells. [Related pubchem assays (depositor defined):AID2717, AID2721]; type: functional; settings: Homo sapiens
[11] = general cell-killing toxicity readout – plate reader, dry powder samples, cytotoxicity control for PAX8 inhibitor project, dose response (AID 743021); type: functional, cell-based

CCOC(=O)N1CCC(NC(=O)c2cc(C(=O)Nc3ccc(OC)c(OC)c3)ccc2CO)CC1
Ki (fMet-Leu-Phe receptor): > 66.7 µM (inactive)

COc1ccc(OC)c(C2C(C(=O)c3ccco3)=C(O)C(=O)N2CCCN2CCOCC2)c1 (stereo unspecified)
Ki (fMet-Leu-Phe receptor): 26.4 µM (inactive)

COCCN=C(S)Nc1ccc2nc(N3CCN(C)CC3)cc(C)c2c1
AC50 [1]: 13.2 µM (active)

CSc1nc(NCCCN(C)C)c2c3c(sc2n1)CN(C)CC3
AC50 [1]: 10.1 µM (active)

Cn1cc(C=C2C(=O)NC(=O)NC2=O)c2ccccc21
EC50 [2]: 21.1 µM (inactive) | EC50 [3]: > 99 µM (inactive) | EC50 [4]: 5.82 µM (inconclusive) | EC50 [5]: 24.1 µM (active) | EC50 [6]: 6.99 µM (inconclusive)

COC(=O)c1[nH]c2ccccc2c1/C=C1\C(=O)NC(=O)N(c2ccc(Br)cc2)C1=O
IC50 [7]: 9.03 µM (active) | AC50 [8]: > 20 µM (inactive)

O=C(Nc1cccc(NC(=O)c2ccc([N+](=O)[O-])o2)c1)c1ccco1
AC50 (Paired box protein Pax-8): 5.2 µM (active) | EC50 [9]: 7.34 µM (active) | EC50 (Streptococcus): 22.7 µM (active) | EC50 (Streptokinase A): 111 µM (active) | IC50 (H9c2): > 79 µM (inactive) | AC50 [10]: 2.95 µM (active) | AC50 [11]: 66.2 µM (active)

CC1=CC(=C2N=C(c3ccccc3)OC2=O)C=C(C)O1
EC50 [2]: > 99 µM (inactive) | EC50 [3]: > 99 µM (inactive) | EC50 [4]: 12.3 µM (inconclusive) | EC50 [6]: 142 µM (inconclusive)

Clc1cccc(/C(Cc2nc3ccccc3[nH]2)=N\Nc2ccccc2)c1
EC50 [2]: > 99 µM (inactive) | EC50 [3]: > 99 µM (inactive)

COc1ccccc1Oc1c(C)oc2c(CN(C)C)c(O)ccc2c1=O
Ki (fMet-Leu-Phe receptor): > 66.7 µM (inactive)

COC(=O)c1ccccc1NC(=O)Cn1cnc2c(cnn2-c2ccccc2)c1=O
EC50 [2]: > 99 µM (inactive) | EC50 [3]: > 99 µM (inactive)

O=C(NCC1CC1)c1ccc(-n2ccnc2)c2ccoc12
AC50 [8]: 14.1 µM (active)

Oc1ccccc1C=NN=Cc1c(O)ccc2ccccc12
EC50 [2]: > 99 µM (inactive) | EC50 [3]: > 99 µM (inactive) | EC50 [5]: 5.17 µM (active)
